This is an account of results in patent publication US8288419B2, “Aminopyrazole derivatives” (Actelion Pharmaceuticals, Ltd, priority 2007, dated 2012).

pEC50: −log10 of the molar value.

The target of this test is T1, recombinant human ALX receptor (Homo sapiens, UniProt P25090).
T1 construct: expressed in transfected cells; host or cells: HEK293 (HEK293-hALXR-Gα16)
T1 sequence (P25090 1-351): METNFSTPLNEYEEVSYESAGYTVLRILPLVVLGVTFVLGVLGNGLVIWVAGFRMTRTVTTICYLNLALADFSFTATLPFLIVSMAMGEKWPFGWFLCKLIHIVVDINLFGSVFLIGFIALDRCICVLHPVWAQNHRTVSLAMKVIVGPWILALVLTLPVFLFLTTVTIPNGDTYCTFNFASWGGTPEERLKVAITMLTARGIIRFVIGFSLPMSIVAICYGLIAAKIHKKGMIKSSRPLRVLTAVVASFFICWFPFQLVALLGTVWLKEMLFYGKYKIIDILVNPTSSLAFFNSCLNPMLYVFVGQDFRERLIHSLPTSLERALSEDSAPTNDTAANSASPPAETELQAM
The test is described as follows: Intracellular calcium measurements (FLIPR), ALX receptor agonistic activity. The test is classed as cell-based. To be noted: HEK293-hALXR-Gα16 cells, Fluo-4 calcium fluorescence, normalized to 10 nM WKYMVm. The method, then: The ALX receptor agonistic activity of the compounds of formula (I) is determined in accordance with the following experimental method.
Intracellular Calcium Measurements:
Cells expressing recombinant human ALX receptor and the G-protein Gα16 (HEK293-hALXR-Gα16) were grown to 80% confluency in Growing Medium (GM). […] Stock solutions of test compounds were made up at a concentration of 10 mM in DMSO, and serially diluted in AB to concentrations required for activation dose response curves. WKYMVm (Phoenix Peptides) was used as a reference agonist. A FLIPR384 instrument (Molecular Devices) was operated according to the manufacturer's standard instructions, adding 4 μl of test compound dissolved at 10 mM in DMSO and diluted prior to the experiment in assay buffer to obtain the desired final concentration. Changes in fluorescence were monitored before and after the addition of test compounds at lex=488 nm and lem=540 nm. Emission peak values above base level after compounds addition were exported after base line subtraction. Values were normalized to high-level control (WKYMVm compound, 10 nM final concentration) after subtraction of the base line value (AB addition). The program XLlfit 3.0 (IDBS) was used to fit the data to a single site dose response curve of the equation (A+((B−A)/(1+((C/x)^D)))) and to calculate the EC50 values.
Broadly, the pEC50 is the negative decadic logarithm of the EC50, by convention in mol/L. Regarding `CC(=O)c1ccc(Cn2ccc(NC(=O)/C=C/c3cccc(C(F)(F)F)c3F)n2)o1` [Example 45, (E)-N-[1-(5-Acetyl-furan-2-ylmethyl)-1H-pyrazol-3-yl]-3-(2-fluoro-3-trifluoromethyl-phenyl)-acrylamide], the negative logarithm of the EC50 (pEC50) was 7.02. With `O=C(Nc1cnn(Cc2ccc(C(=O)C3CC3)o2)c1)OCc1ccccc1Cl` [Example 3, [1-(5-Cyclopropanecarbonyl-furan-2-ylmethyl)-1H-pyrazol-4-yl]-carbamic acid 2-chloro-benzyl ester], the negative-log EC50 (pEC50) was 6.69. For `CC(=O)c1ccc(Cn2cc(NC(=O)c3ncoc3-c3ccc(C)cc3)cn2)o1` [Example 331, 5-p-Tolyl-oxazole-4-carboxylic acid [1-(5-acetyl-furan-2-ylmethyl)-1H-pyrazol-4-yl]-amide], the negative logarithm of the EC50 (pEC50) was 7.07. With `CC(=O)CCCCn1ccc(NC(=O)c2ncoc2-c2ccccc2)n1` [Example 179, 5-Phenyl-oxazole-4-carboxylic acid [1-(5-oxo-hexyl)-1H-pyrazol-3-yl]-amide], the negative logarithm of the EC50 (pEC50) is 6.02. As for `CC(=O)c1ccc(Cn2cc(NC(=O)c3nc(C4CC4)oc3-c3ccccc3)cn2)s1` [Example 401, 2-Cyclopropyl-5-phenyl-oxazole-4-carboxylic acid [1-(5-acetyl-thiophen-2-ylmethyl)-1H-pyrazol-4-yl]-amide], the figure is 7.31; as for `CC(=O)c1nc(Cn2cc(NC(=O)OCc3ccccc3Cl)cn2)cs1` [Example 409, [1-(2-Acetyl-thiazol-4-ylmethyl)-1H-pyrazol-4-yl]-carbamic acid 2-chloro-benzyl ester], 6.09.

In the case of `CC(F)(F)CCCCn1cc(NC(=O)c2ncoc2-c2ccccc2)cn1` [Example 204, 5-Phenyl-oxazole-4-carboxylic acid [1-(5,5-difluoro-hexyl)-1H-pyrazol-4-yl]-amide], the pEC50 was 6.71. With `CC(=O)c1ncc(Cn2cc(NC(=O)c3ncoc3-c3ccccc3)cn2)s1` [Example 437, 5-Phenyl-oxazole-4-carboxylic acid [1-(2-acetyl-thiazol-5-ylmethyl)-1H-pyrazol-4-yl]-amide], the pEC50 is 7.00. Take `CC(F)(F)c1ccc(Cn2ccc(NC(=O)OCc3ccccc3Cl)n2)o1` [Example 197, {1-[5-(1,1-Difluoro-ethyl)-furan-2-ylmethyl]-1H-pyrazol-3-yl}-carbamic acid 2-chloro-benzyl ester]: the pEC50 was 7.54.

For `CC(=O)CCCCn1ccc(NC(=O)/C=C/c2ccccc2C(F)(F)F)n1` [Example 181, (E)-N-[1-(5-Oxo-hexyl)-1H-pyrazol-3-yl]-3-(2-trifluoromethyl-phenyl)-acrylamide], the negative logarithm of the EC50 (pEC50) is 7.17. Consider `CC(=O)CCCCn1cc(NC(=O)OC(C)c2ccccc2)cn1` (racemic) [Example 125, [1-(5-Oxo-hexyl)-1H-pyrazol-4-yl]-carbamic acid (RS)-1-phenyl-ethyl ester], for which the pEC50 is 7.16. With `CC(F)(F)CCCCn1ccc(NC(=O)c2ncoc2-c2ccccc2)n1` [Example 202, 5-Phenyl-oxazole-4-carboxylic acid [1-(5,5-difluoro-hexyl)-1H-pyrazol-3-yl]-amide], the negative logarithm of the EC50 (pEC50) is 6.05. As to `CC(F)(F)c1ccc(Cn2ccc(NC(=O)OCc3cccc(C(F)(F)F)c3)n2)o1` [Example 280, {1-[5-(1,1-Difluoro-ethyl)-furan-2-ylmethyl]-1H-pyrazol-3-yl}-carbamic acid 3-trifluoromethyl-benzyl ester], the pEC50 was 7.57.

Turning to `CCc1ccccc1COC(=O)Nc1cnn(Cc2ccc(C(C)(F)F)o2)c1` [Example 314, {1-[5-(1,1-Difluoro-ethyl)-furan-2-ylmethyl]-1H-pyrazol-4-yl}-carbamic acid 2-ethyl-benzyl ester], the negative-log EC50 (pEC50) is 7.57. Take `CC(=O)c1cncc(Cn2cc(NC(=O)OCc3ccccc3Cl)cn2)c1` [Example 382, [1-(5-Acetyl-pyridin-3-ylmethyl)-1H-pyrazol-4-yl]-carbamic acid 2-chloro-benzyl ester]: the negative-log EC50 (pEC50) is 6.40. To `COc1cccc(/C=C/C(=O)Nc2cnn(Cc3ccc(C(C)=O)o3)c2)c1OC` [Example 93, (E)-N-[1-(5-Acetyl-furan-2-ylmethyl)-1H-pyrazol-4-yl]-3-(2,3-dimethoxy-phenyl)-acrylamide] belongs 6.68; to `CC(=O)c1nc(Cn2cc(NC(=O)OCc3ccccc3Cl)cn2)co1` [Example 466, [1-(2-Acetyl-oxazol-4-ylmethyl)-1H-pyrazol-4-yl]-carbamic acid 2-chloro-benzyl ester], 7.47; to `CC(=O)c1csc(Cn2cc(NC(=O)OCc3ccccc3Cl)cn2)c1` [Example 442, [1-(4-Acetyl-thiophen-2-ylmethyl)-1H-pyrazol-4-yl]-carbamic acid 2-chloro-benzyl ester], 7.03. To `CC(=O)c1ccc(Cn2cc(NC(=O)c3ncoc3-c3cccc(C(F)(F)F)n3)cn2)o1` [Example 419, 5-(6-Trifluoromethyl-pyridin-2-yl)-oxazole-4-carboxylic acid [1-(5-acetyl-furan-2-ylmethyl)-1H-pyrazol-4-yl]-amide] belongs 7.18; to `CC(=O)c1ccc(Cn2cc(NC(=O)c3nc(C(C)C)oc3-c3ccccc3)cn2)o1` [Example 424, 2-Isopropyl-5-phenyl-oxazole-4-carboxylic acid [1-(5-acetyl-furan-2-ylmethyl)-1H-pyrazol-4-yl]-amide], 6.94; to `CC(=O)c1cccc(Cn2cc(NC(=O)OCc3ccccc3Cl)cn2)c1` [Example 366, [1-(3-Acetyl-benzyl)-1H-pyrazol-4-yl]-carbamic acid 2-chloro-benzyl ester], 7.25. `CC(=O)CCCCn1cc(NC(=O)c2ncoc2-c2ccccc2)cn1` [Example 152, 5-Phenyl-oxazole-4-carboxylic acid [1-(5-oxo-hexyl)-1H-pyrazol-4-yl]-amide]: the pEC50 is 6.72. For `CC(=O)c1ccc(Cn2ccc(NC(=O)c3nc(C)oc3-c3cccc(OC(F)(F)F)c3)n2)s1` [Example 392, 2-Methyl-5-(3-trifluoromethoxy-phenyl)-oxazole-4-carboxylic acid [1-(5-acetyl-thiophen-2-ylmethyl)-1H-pyrazol-3-yl]-amide], the negative-log EC50 (pEC50) is 6.63.

Take `CC(=O)c1ncc(Cn2ccc(NC(=O)c3ncoc3-c3ccccc3)n2)o1` [Example 440, 5-Phenyl-oxazole-4-carboxylic acid [1-(2-acetyl-oxazol-5-ylmethyl)-1H-pyrazol-3-yl]-amide]: the negative logarithm of the EC50 (pEC50) is 6.84. In the case of `CC(F)(F)c1ccc(Cn2cc(NC(=O)OCc3ccccc3Cl)cn2)o1` [Example 199, {1-[5-(1,1-Difluoro-ethyl)-furan-2-ylmethyl]-1H-pyrazol-4-yl}-carbamic acid 2-chloro-benzyl ester], the negative-log EC50 (pEC50) is 7.48.

Take `CC(=O)c1ccc(Cn2cc(NC(=O)c3ncsc3-c3cccc(Cl)c3)cn2)o1` [Example 120, 5-(3-Chloro-phenyl)-thiazole-4-carboxylic acid [1-(5-acetyl-furan-2-ylmethyl)-1H-pyrazol-4-yl]-amide]: the pEC50 was 6.69. For `CC(=O)CCCCn1ccc(NC(=O)OCc2ccc(F)c(F)c2)n1` [Example 169, [1-(5-Oxo-hexyl)-1H-pyrazol-3-yl]-carbamic acid 3,4-difluoro-benzyl ester], the pEC50 is 6.44. Turning to `Cc1ccc(F)c(COC(=O)Nc2ccn(CCCCC(C)(F)F)n2)c1F` [Example 282, [1-(5,5-Difluoro-hexyl)-1H-pyrazol-3-yl]-carbamic acid 2,6-difluoro-3-methyl-benzyl ester], the negative logarithm of the EC50 (pEC50) is 7.60. With `CC(=O)c1ccc(Cn2ccc(NC(=O)c3nc(CN)oc3-c3ccccc3)n2)o1` [Example 390, 2-Aminomethyl-5-phenyl-oxazole-4-carboxylic acid [1-(5-acetyl-furan-2-ylmethyl)-1H-pyrazol-3-yl]-amide], the negative logarithm of the EC50 (pEC50) was 6.14. To `CC(=O)c1cnc(Cn2cc(NC(=O)c3ncoc3-c3ccccc3)cn2)s1` [Example 435, 5-Phenyl-oxazole-4-carboxylic acid [1-(5-acetyl-thiazol-2-ylmethyl)-1H-pyrazol-4-yl]-amide] belongs 6.35; to `CC(F)(F)c1ccc(Cn2ccc(NC(=O)c3ncoc3-c3ccccc3)n2)o1` [Example 198, 5-Phenyl-oxazole-4-carboxylic acid {1-[5-(1,1-difluoro-ethyl)-furan-2-ylmethyl]-1H-pyrazol-3-yl}-amide], 6.51; to `CC(=O)c1ccc(Cn2cc(NC(=O)c3nc(C)sc3-c3cccc(C)c3)cn2)s1` [Example 395, 2-Methyl-5-m-tolyl-thiazole-4-carboxylic acid [1-(5-acetyl-thiophen-2-ylmethyl)-1H-pyrazol-4-yl]-amide], 6.77.
